# From US20240315989A1 (priority 2021, published 2024)
# Where two headings read alike, the source gives them in different places.
# How the values were obtained:
# [1] = system: severe COVID-19; assay: AP-HP observational multicenter study: FIASMA medication use and intubation or death in severe COVID-19; format: in vivo, human; details: for Univariate Cox regression in 1:2 ratio matched analytic samples HR: vs matched control groups; for Number of events/Number of patients N/N: each FIASMA class and molecule at baseline, severe COVID-19 (N = 2,846); for Number of events/Number of patients (%): each FIASMA class and molecule
# Description: COVID-19 was ascertained by a positive reverse-transcriptase-polymerase-chain-reaction (RT-PCR) test on nasopharyngeal or oropharyngeal swab specimens. Severe COVID-19 was defined as having at least one of the following criteria at hospital admission: respiratory rate >24 breaths/min or <12 breaths/min, resting peripheral capillary oxygen saturation in ambient air <90%, temperature >40° C., systolic blood pressure <100 mm Hg, or high lactate levels >2 mmol/L.^22
# AP-HP Health Data Warehouse (‘Entrepôt de Données de Santé (EDS)’) contains all available clinical data on all inpatient visits for COVID-19 to 36 Greater Paris university hospitals. The data included patient demographic characteristics, vital signs, laboratory tests, and RT-PCR test results, medication administration data during the hospitalization for COVID-19, current diagnoses, discharge disposition, ventilator use data, and death certificates.
# We obtained the following data for each patient at the time of the hospitalization: sex; age, which was categorized into four classes based on the OpenSAFELY study results^23 (i.e., 18-50, 51-70, 71-80, and 81+); hospital, which was categorized into four classes following the administrative clustering of AP-HP hospitals in Paris and its suburbs based on their geographical location (i.e., AP-HP Centre—Paris University, Henri Mondor University Hospitals and at home hospitalization; AP-HP Nord and Hôpitaux Universitaires Paris Seine-Saint-Denis; AP-HP Paris Saclay University; and AP-HP Sorbonne University); obesity, which was defined as having a body mass index higher than 30 kg/m^2 or an International Statistical Classification of Diseases and Related Health Problems (ICD-10) diagnosis code for obesity (E66.0, E66.1, E66.2, E66.8, and E66.9); self-reported current smoking status; and any medication prescribed according to compassionate use or as part of a clinical trial (e.g., hydroxychloroquine, azithromycin, remdesivir, tocilizumab, sarilumab, or dexamethasone). To take into account possible confounding by indication bias for FIASMA medications, we recorded whether patients had any current diagnosis, based on ICD-10 diagnosis codes recorded during the visit, of neoplasms and diseases of the blood (C00-D89); mental disorders (F01-F99); diseases of the nervous system (G00-G99); cardiovascular disorders (I00-I99); respiratory disorders (J00-J99); digestive disorders (K00-K95); dermatological disorders (L00-L99); diseases of the musculoskeletal system (M00-M99); diseases of the genitourinary system (N00-N99); endocrine disorders (E00-E89); and eye-ear-nose-throat disorders (H00-H95).
# FIASMA medication use was defined as receiving at least one FIASMA medication within the first 24 hours of hospital admission. To minimize potential confounding effects of late prescription of FIASMA medications, patients who initiated an FIASMA medication more than 24 hours after hospital admission were excluded from the analyses. Patients who received at study baseline an antipsychotic or a benzodiazepine while being hospitalized in an intensive care unit, possibly as an aid to oral intubation, were also excluded.
# Study baseline was defined as the date of hospital admission for COVID-19. The primary end point was the occurrence of intubation and/or death. For patients who died after intubation, the timing of the primary end point was defined as the time of intubation.
# We calculated frequencies of all baseline characteristics described above in patients receiving or not receiving an FIASMA medication and compared them using standardized mean differences (SMD). SMD are useful to evaluate between-group differences in baseline characteristic variables independently of their unit of measurement (i.e., for both continuous and categorical variables^26-28). We considered SMD greater than 0.1 as reflecting significant differences, a threshold recommended for declaring imbalance.^27
# [2] = system: SARS-CoV-2 infection; assay: Retrospective cohort (BJC Healthcare): antidepressant exposure and ED or hospital encounter within 30 days; format: in vivo, human; details: for ED or hospital encounter within 30 days, %: share of exposed outpatients with an encounter after a positive SARS-CoV-2 test; for Unadjusted Odds Ratio, ED or hospital encounter within 30 days / Adjusted Odds Ratio, ED or hospital encounter within 30 days: vs No Antidepressant (Ref); for Unadjusted Odds Ratio, ED or hospital encounter within 30 days: logistic regression; for Adjusted Odds Ratio, ED or hospital encounter within 30 days: multivariable logistic regression, complete cases
# [3] = molecular target: sigma-1 receptors (Rattus norvegicus, UniProt Q9R0C9); details: cited from earlier work
# [4] = system: SARS-CoV-2; details: A549-ACE2; cited from earlier work
# [5] = molecular target: T1, σ1 site (Homo sapiens, UniProt Q99720); details: read-out: Affinity for σ1 Site (Ki or KD values); cited from earlier work
# [6] = molecular target: T1, σ1 site; details: cited from earlier work
# [7] = system: SARS-CoV-2; details: cited from earlier work
# [8] = system: pp-VSV-SARS-CoV-2 spike; details: cited from earlier work
# [9] = one-compartment model; cited from earlier work
# [10] = system: COVID-19; details: p<0.05; cited from earlier work
# [11] = system: SARS-CoV-2; details: cited from earlier work; remark: listed apart in the source
# [12] = vs no FIASMA medication, Table 33
# [13] = paracetamol group matched to FIASMA respiratory system medication, Table 34
# T1 sequence (Q99720 whole entry): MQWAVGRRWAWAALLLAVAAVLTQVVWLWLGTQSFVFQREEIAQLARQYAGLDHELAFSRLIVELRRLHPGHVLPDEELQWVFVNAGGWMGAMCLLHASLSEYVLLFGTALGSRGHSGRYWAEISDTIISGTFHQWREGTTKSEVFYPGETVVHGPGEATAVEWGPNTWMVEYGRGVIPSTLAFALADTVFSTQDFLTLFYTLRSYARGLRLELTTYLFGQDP
# Sequence of sigma-1 receptors (Q9R0C9 whole entry): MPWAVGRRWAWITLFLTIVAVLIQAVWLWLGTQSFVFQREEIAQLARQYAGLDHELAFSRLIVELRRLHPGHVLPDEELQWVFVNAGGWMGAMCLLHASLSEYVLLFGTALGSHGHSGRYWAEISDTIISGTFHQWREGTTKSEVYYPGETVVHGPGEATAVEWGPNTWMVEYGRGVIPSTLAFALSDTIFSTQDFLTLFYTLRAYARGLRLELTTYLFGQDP
smiles,measurement,setting,value
Fc1ccc([C@@H]2CCNC[C@H]2COc2ccc3c(c2)OCO3)cc1 [paroxetine],Univariate Cox regression in 1:2 ratio matched analytic samples HR,[1]; Table 33,0.54
same,Analysis weighted by inverse-probability-weighting weights HR,[1]; [12],0.57
same,Crude Cox regression analysis HR,[1]; [12],0.69
same,"ED or hospital encounter within 30 days, %",[2],15.1%
same,"Unadjusted Odds Ratio, ED or hospital encounter within 30 days",[2],1.67
same,"Adjusted Odds Ratio, ED or hospital encounter within 30 days",[2],0.64
same,Ki,[3],2040 nM
OCCOCCN1CCN(C(c2ccccc2)c2ccc(Cl)cc2)CC1 (stereo not drawn) [Hydroxyzine],Number of events/Number of patients N/N,[1]; Table 33,11/31
COc1ccc2c(c1)[C@]13CCCC[C@@H]1[C@H](C2)N(C)CC3 [Dextromethorphan],SARS-CoV-2 viral replication,[4],increase viral replication
same,Ki,[5],< 500 nM
same,Function on σ1 Site,[6],Agonist
CNCCC(Oc1ccc(C(F)(F)F)cc1)c1ccccc1 (stereo not drawn) [fluoxetine],"ED or hospital encounter within 30 days, %",[2],16.2%
same,Entry and propagation of SARS-CoV-2,[7]; Vero-E6 cell lines,efficiently inhibit entry and propagation
same,Function on σ1 Site,[6],Agonist
same,Infection with pp-VSV-SARS-CoV-2 spike,[8]; Vero cells,prevent infection
same,volume of distribution [V/F],[9],690 L
same,Risk of intubation or death because of COVID-19,[10],lower risk of intubation or death
CN[C@H]1CC[C@@H](c2ccc(Cl)c(Cl)c2)c2ccccc21 [sertraline],Number of events/Number of patients N/N,[1]; Table 33,7/21
same,Number of events/Number of patients (%),[1]; Table 33,(33.3) %
same,Analysis weighted by inverse-probability-weighting weights adjusted for unbalanced covariates HR,[1]; [12],0.82
same,Crude Cox regression analysis HR,[1]; [12],0.58
same,Multivariable Cox regression analysis HR,[1]; [12],0.67
same,"ED or hospital encounter within 30 days, %",[2],17.9%
same,Function on σ1 Site,[6],Agonist
CN(C)C(=O)C(CCN1CCC(O)(c2ccc(Cl)cc2)CC1)(c1ccccc1)c1ccccc1 [Loperamide],Number of events/Number of patients N/N,[1]; Table 33,2/9
same,Number of events/Number of patients (%),[1]; Table 33,(22.2) %
same,Univariate Cox regression in 1:2 ratio matched analytic samples HR,[1]; Table 33,0.24
same,Analysis weighted by inverse-probability-weighting weights HR,[1]; [12],0.15
same,Crude Cox regression analysis HR,[1]; [12],0.39
same,Multivariable Cox regression analysis HR,[1]; [12],0.25
CC(=O)Nc1ccc(O)cc1 [Paracetamol],Number of events/Number of patients in the matched groups (%),[1]; [13],(21.4) %
same,Number of events/Number of patients in the matched groups N/N,[1]; [13],3/14
same,Number of events/Number of patients in the matched groups (%),"[1]; paracetamol group matched to other FIASMA cardiovascular system medications, Table 34",(48.5) %
CN(C)CCC=C1c2ccccc2CCc2ccccc21 [amitriptyline],"ED or hospital encounter within 30 days, %",[2],23.6%
same,"Unadjusted Odds Ratio, ED or hospital encounter within 30 days",[2],2.90
same,"Adjusted Odds Ratio, ED or hospital encounter within 30 days",[2],1.09
same,Infection with SARS-CoV-2,[7]; human Caco-2 cells,prevented infection
same,Infection with pp-VSV-SARS-CoV-2 spike,[8]; freshly isolated nasal epithelial cells of volunteers treated with a low dose,prevented infection
CN(C)CCC[C@@]1(c2ccc(F)cc2)OCc2cc(C#N)ccc21 [escitalopram],Inhibiting SARS-CoV-2 replication at a concentration of,[11],at a concentration of 0.8 μg/ml
same,"ED or hospital encounter within 30 days, %",[2],16.2%
same,Infection with pp-VSV-SARS-CoV-2 spike,[8]; Vero cells,prevent infection
same,Risk of intubation or death because of COVID-19,[10],lower risk of intubation or death
